Test results as given in patent publication US20250268852A1, “MICROBIOTA IMPROVING AGENT” (SANYO CHEMICAL INDUSTRIES, LTD., priority 2022, published 2025).
Peptide text beside a SMILES is read from it.

assay: Amount of magnesium captured per 100 g of substance (X), ion-selective electrode method; type: physicochemical
Procedure: As for the substance (X), the amount of magnesium captured per 100 g of the substance (X) is preferably 1 g or more, as measured by the ion-selective electrode method.
When the substance (X) is a hydrate, 100 g of the substance (X) refers to 100 g by weight excluding hydration water.
The measurement by the ion-selective electrode method is performed using 2 mM of the substance (X) relative to a 1 mM aqueous MgCl2 solution having a temperature of 20° C. and a pH of 7.
Each substance (X) was subjected to measurement of the amount (g) of magnesium captured per 100 g of the substance (X) by the ion-selective electrode method as follows. For (X-5), the amount of magnesium captured per 100 g of Na2WO4 contained in (X-5) was measured. For (X-16), the amount of magnesium captured per 100 g of adenosine triphosphate disodium contained in (X-16) was measured.
The measurement by the ion-selective electrode method was performed using 2 mM of the substance (X) relative to a 1 mM aqueous MgCl2 solution having a temperature of 20° C. and a pH of 7.

Compound	Amount of magnesium (g) captured per 100 g of substance (X) [g]
CC(=O)CCC(=O)O [Example X-4, Levulinic acid]	2
CC(=O)CC(=O)c1ccccc1 [Example X-3, Benzoylacetone]	3
CC(=O)CC(C)=O [Example X-2, Acetylacetone]	3
Nc1ncnc2c1ncn2[C@@H]1O[C@H](COP(=O)([O-])OP(=O)([O-])OP(=O)(O)O)[C@@H](O)[C@H]1O.O.O.O.[Na+].[Na+] [Example X-16, Adenosine triphosphate disodium trihydrate]	5
O.O.[Na+].[Na+].[O]=[W](=[O])([O-])[O-] [Example X-5, Sodium tungstate dihydrate]	2
O=P([O-])([O-])OP(=O)([O-])OP(=O)([O-])[O-].[Na+].[Na+].[Na+].[Na+].[Na+] [Example X-1, Pentasodium triphosphate]	5
NCC(=O)NCC(=O)O [Example X-6, Glycylglycine] (H-Gly-Gly-OH)	2
Oc1cccc2cccnc12 [Example X-14, 8-Quinolinol]	2
O=C(O)[C@H](O)[C@@H](O)[C@H](O)[C@H](O)CO [Example X-10, Gluconic acid]	30

Further lines, results first:

Amount of magnesium (g) captured per 100 g of substance (X) [g]	Compound
15	O=C[C@H](O)[C@@H](O)[C@H](O)[C@H](O)C(=O)O [Example X-11, Glucuronic acid]
15	O=C(O)CC(O)C(=O)O (stereo not shown) [Example X-8, Malic acid]
2	N[C@@H](CCC(=O)O)C(=O)O [Example X-7, Glutamic acid]
10	O=C(O)CN(CCN(CC(=O)O)CC(=O)O)CC(=O)O [Example X-12, Ethylenediaminetetraacetic acid]
9	O=C(O)C(O)C(O)C(=O)O (stereo not shown) [Example X-15, Tartaric acid]
8	O=C(O)CNCC(=O)O [Example X-13, Iminodiacetic acid]
20	O=C(O)CC(O)(CC(=O)O)C(=O)O [Example X-9, Citric acid]
